Assay results: patent US20070149465A1, “COMPOSITIONS AND METHODS FOR PREVENTION AND TREATMENT OF CACHEXIA” (priority 2005, published 2007)
Where two headings read alike, the source gives them in different places.

How the values were obtained:
[1] = Osmolality of formoterol filtrate in citrate buffers; format: physicochemical; details: 25° C.
[2] = for Formoterol solubility: 25° C.
[3] = cited from earlier work; for estimated shelf-life: compositions of Banerjee et al.; for rate constant of decomposition: 60° C., buffer 5 mM, ionic strength 0.05
Saline-inoculated rats = test: Rat AH130 experiments, saline-inoculated control rats given drug; format: in vivo, female Wistar rats
Protocol: (§1) Following the method of Busquets et al (Busquets S, et al: Cancer Res 64:6725-31, 2004), female Wistar rats were inoculated (Day 0) intra-peritoneally (i.p.) with 2×10^7 cells/animal of Yoshida AH-130 ascites hepatoma (AH) cells. Control animals were inoculated with an equivalent amount of sterile saline solution. […] The animals were sacrificed on Day 5. Upon sacrifice, wet weights of heart and gastrocnemius muscle were determined. Carcass (after gastrocnemius, heart, and ascites removal) weight was also determined upon sacrifice.
(§2) Treatment Group=Inoculation Type/Vehicle, or Treatment Group=Inoculation Type/F(x)R(y) where, Inoculation Type is either AH or Saline, F is formoterol fumarate, R is roxithromycin, and the parenthetical values are formoterol fumarate and roxithromycin doses (i.p. in mg/kg).

AH-inoculated rats = test: Rat AH130 Ascites Hepatoma Model of Cancer Cachexia, AH-inoculated rats; format: in vivo, female Wistar rats; details: for Carcass Weights Mean / Gastrocnemius Weights Mean / Heart Weights Mean: normalized to 100 g Day 5 Total Body Weight
Protocol: as §1, §2

[4] = Exp 2 Group 10, Saline, F 1, R 0 mg/kg i.p., Day 5, normalized to 100 g Day 5 Total Body Weight
[5] = Exp 1 Group 3, AH, F 1, R 0 mg/kg i.p., Day 5
[6] = Exp 2 Group 7, AH, F 1, R 0 mg/kg i.p., Day 5
[7] = Exp 3 Group 13, AH, F 1, R 0 mg/kg i.p., Day 5
[8] = Exp 4 Group 18, AH, F 1, R 0 mg/kg i.p., Day 5, sample weight normalized to 100 g Day 5 Total Body Weight

With `COc1ccc(C[C@@H](C)NC[C@H](O)c2ccc(O)c(NC=O)c2)cc1.COc1ccc(C[C@@H](C)NC[C@H](O)c2ccc(O)c(NC=O)c2)cc1.O=C(O)/C=C/C(=O)O` [formoterol fumarate] the “Formoterol Filtrate osmolality” value ([1]; 20 mM citrate, pH 4) was 49 mOsm/kG, the “Formoterol Filtrate osmolality” value ([1]; 20 mM citrate, pH 5) was 56 mOsm/kG and the “Formoterol Filtrate osmolality” value ([1]; 20 mM citrate, pH 6) was 60 mOsm/kG. The “Formoterol Filtrate osmolality” value ([1]; 20 mM citrate, pH 7) was 66 mOsm/kG, the “Formoterol Filtrate osmolality” value ([1]; 50 mM citrate, pH 4) was 113 mOsm/kG and the “Formoterol Filtrate osmolality” value ([1]; 50 mM citrate, pH 5) was 130 mOsm/kG. The “Formoterol Filtrate osmolality” value ([1]; 50 mM citrate, pH 6) was 140 mOsm/kG, the “Formoterol Filtrate osmolality” value ([1]; 50 mM citrate, pH 7) was 146 mOsm/kG and the “Formoterol Filtrate osmolality” value ([1]; 100 mM citrate, pH 4) was 205 mOsm/kG. The “Formoterol Filtrate osmolality” value ([1]; 100 mM citrate, pH 5) was 249 mOsm/kG, the “Formoterol Filtrate osmolality” value ([1]; 100 mM citrate, pH 6) was 275 mOsm/kG and the “Formoterol Filtrate osmolality” value ([1]; 100 mM citrate, pH 7) was 278 mOsm/kG. The “Formoterol Filtrate osmolality” value ([1]; 200 mM citrate, pH 4) was 392 mOsm/kG, the “Formoterol Filtrate osmolality” value ([1]; 200 mM citrate, pH 5) was 473 mOsm/kG and the “Formoterol Filtrate osmolality” value ([1]; 200 mM citrate, pH 6) was 527 mOsm/kG. The “Formoterol Filtrate osmolality” value ([1]; 200 mM citrate, pH 7) was 543 mOsm/kG, the Formoterol solubility ([2]; 20 mM citrate, pH 4) was 2710 µg/mL and the Formoterol solubility ([2]; 20 mM citrate, pH 5) was 2350 µg/mL. The Formoterol solubility ([2]; 20 mM citrate, pH 6) was 2470 µg/mL, the Formoterol solubility ([2]; 20 mM citrate, pH 7) was 2330 µg/mL and the Formoterol solubility ([2]; 50 mM citrate, pH 4) was 3690 µg/mL. The Formoterol solubility ([2]; 50 mM citrate, pH 5) was 2770 µg/mL, the Formoterol solubility ([2]; 50 mM citrate, pH 6) was 2780 µg/mL and the Formoterol solubility ([2]; 50 mM citrate, pH 7) was 2920 µg/mL. For the same compound, the Formoterol solubility ([2]; 100 mM citrate, pH 4) was 3010 µg/mL, the Formoterol solubility ([2]; 100 mM citrate, pH 5) was 2690 µg/mL and the Formoterol solubility ([2]; 100 mM citrate, pH 6) was 2870 µg/mL. It also gave a Formoterol solubility ([2]; 100 mM citrate, pH 7) of 2600 µg/mL, a Formoterol solubility ([2]; 200 mM citrate, pH 4) of 3690 µg/mL and a Formoterol solubility ([2]; 200 mM citrate, pH 5) of 2900 µg/mL. For the same compound, the Formoterol solubility ([2]; 200 mM citrate, pH 6) was 2720 µg/mL, the Formoterol solubility ([2]; 200 mM citrate, pH 7) was 2840 µg/mL and the solubility ([2]; citrate buffer concentrations between 20 and 200 mM at pH 4 to pH 7) was greater than 1000 µg/mL. For the same compound, the estimated shelf-life ([3]; 5° C.) was “about 6.2 years”, the estimated shelf-life ([3]; 25° C.) was “about 7.5 months” and the “rate constant of decomposition” value ([3]; pH 3) was “approximately 0.62 day^1”. For the same compound, the “rate constant of decomposition” value ([3]; pH 4) was roughly 0.11 day^1, the “rate constant of decomposition” value ([3]; pH 5) was roughly 0.044 day^1 and the “rate constant of decomposition” value ([3]; pH 7) was roughly 0.55 day^1. The “Carcass Weights Mean” value (Saline-inoculated rats; [4]) was 97.6 g, the “Gastrocnemius Weights Mean” value (Saline-inoculated rats; [4]) was 0.613 g and the “Heart Weights Mean” value (Saline-inoculated rats; [4]) was 0.410 g. For the same compound, the “gastrocnemius muscle weights compared with Saline/vehicle group” value (Saline-inoculated rats; Experiment 2, Saline/F(1)R(0) group) was “approximately the same”, the “Carcass Weights Mean” value (AH-inoculated rats; [5]) was 95.35 g and the “Gastrocnemius Weights Mean” value (AH-inoculated rats; [5]) was 0.551 g. For the same compound, the “Heart Weights Mean” value (AH-inoculated rats; [5]) was 0.337 g, the “Carcass Weights Mean” value (AH-inoculated rats; [6]) was 89.7 g and the “Gastrocnemius Weights Mean” value (AH-inoculated rats; [6]) was 0.499 g. For the same compound, the “Heart Weights Mean” value (AH-inoculated rats; [6]) was 0.348 g, the “Carcass Weights Mean” value (AH-inoculated rats; [7]) was 93.1 g and the “Gastrocnemius Weights Mean” value (AH-inoculated rats; [7]) was 0.489 g. The “Heart Weights Mean” value (AH-inoculated rats; [7]) was 0.376 g, the “Carcass Mean” value (AH-inoculated rats; [8]) was 97.8 and the “Gastrocnemius Mean” value (AH-inoculated rats; [8]) was 0.502. For the same compound, the “Heart Mean” value (AH-inoculated rats; [8]) was 0.367 and the “gastrocnemius muscle loss compared with AH/vehicle group” value (AH-inoculated rats; Experiment 1, AH/F(1)R(0) group) was “significantly less”.
